# Measurements reported in patent US20100069364A1, “SUBSTITUTED PYRAZOLINE COMPOUNDS WITH ACAT INHIBITION ACTIVITY, THEIR PREPARATION AND USE AS MEDICAMENTS” (LABORATORIOS DEL DR. ESTEVE, S.A., priority 2007, published 2010).
# Where two headings read alike, the source gives them in different places.
# Legend:
# [1] = tested on: T1, ACAT (Acyl CoA-Cholesterol Acyltransferase); assay: In-vitro determination of inhibition of ACAT in hepatic microsomes, [14C]-Palmitoyl CoA substrate; assay type: biochemical, Wistar rats; settings: rat hepatic microsomes
# T1 construct: other: 10^−4 M; rat hepatic microsomes; other: 3 × 10^−5 M; other: 10^−5 M; ot
# Procedure: I. In-Vitro Determination of Inhibition of ACAT (Acyl CoA-Cholesterol Acyltransferase)
# The in-vitro determination of the inhibition of the enzyme ACAT by the compounds of the invention is carried out in principle as described in the publication of Largis EE, Wang CH, DeVries VG and Schaffer SA (1989), “A Novel inhibitor of ACAT-catalyzed cholesterol esterification and cholesterol absorption”, J. Lipid Res. 30, 681-689, (1989), whereby hepatic microsomes are used. The radio-substrate used is [^14C]-Palmitoyl CoA. The respective parts of the description are hereby incorporated by reference and forms part of the present disclosure.
# Briefly hepatic microsomes were prepared from the Wistar rats. Enzyme inhibition experiments were performed in presence of 18 μM [^14C]-Palmitoyl CoA as substrate. The vehicle used was 1% DMSO. Compounds to be tested were present at various concentrations and the incubation buffer used was 0.2 M Phosphate buffer, pH 7.4 at 25° C. After a 15 minutes preincubation period at 37° C. an incubation period of 10 minutes at 37° C. followed. Quantification of [^14C]Cholesterol ester was done by column chromatography.
# The inhibition of the enzyme ACAT by the inventive substituted pyrazoline compounds was determined as described above.
# [2] = target: ACAT (Acyl CoA-Cholesterol Acyltransferase); settings: reported value for the reference compound; cited from earlier work
# [3] = 3 × 10^−5 M, second table (other experiment)
# [4] = 3 × 10^−6 M, second table (other experiment)
# [5] = 10^−4 M, second table (other experiment)
# [6] = 10^−5 M, second table (other experiment)
# [7] = second table (other experiment)
"ACAT Inhibition (%) at various concentration of example ([1]; 3 × 10^−5 M, first table)","ACAT Inhibition (%) at various concentration of example ([1]; 3 × 10^−6 M, first table)","ACAT Inhibition (%) at various concentration of example ([1]; 10^−5 M, first table)","ACAT Inhibition (%) at various concentration of example ([1]; 10^−6 M, first table)",IC50 ([1]; first table),"ACAT Inhibition (%) at various concentration of example [1, 3]","ACAT Inhibition (%) at various concentration of example [1, 4]","ACAT Inhibition (%) at various concentration of example ([1]; 3 × 10^−7 M, first table)","ACAT Inhibition (%) at various concentration of example [1, 5]","ACAT Inhibition (%) at various concentration of example [1, 6]","IC50 [1, 7]",Structure (SMILES),"ACAT Inhibition (%) at various concentration of example ([1]; 10^−4 M, first table)",IC50 [2]
91%,32%,68%,20%,4.93 µM,94%,37%,10%,98%,75%,4.39 µM,"CC1(c2ccc(Cl)cc2)CC(C(=O)NN2CCCCCC2)=NN1c1ccc(Cl)cc1Cl.Cl (stereo not shown) [Example 2, 5-(4-Chloro-phenyl)-1-(2,4-dichloro-phenyl)-5-methyl-4,5-dihydro-1H-pyrazole-3-carboxylic acid azepan-1-ylamide; hydrochloride]",,
79%,30%,56%,10%,7.63 µM,85%,34%,,98%,62%,5.96 µM,"CC1(c2ccc(Cl)cc2)CC(C(=O)NN2CCCCC2)=NN1c1ccc(Cl)cc1Cl.Cl (stereo not shown) [Example 3, 5-(4-Chloro-phenyl)-1-(2,4-dichloro-phenyl)-5-methyl-4,5-dihydro-1H-pyrazole-3-carboxylic acid piperidin-1-ylamide; hydrochloride]",92%,
,,,,22.7 µM,,,,,,12.5 µM,"CC[C@H](C)C(=O)O[C@H]1C[C@@H](C)C=C2C=C[C@H](C)[C@H](CC[C@@H]3C[C@@H](O)CC(=O)O3)[C@H]21 [Lovastatin, reference compound]",,29 µM

Structure (SMILES),"ACAT Inhibition (%) at various concentration of example ([1]; 3 × 10^−5 M, first table)","ACAT Inhibition (%) at various concentration of example ([1]; 3 × 10^−6 M, first table)","ACAT Inhibition (%) at various concentration of example ([1]; 10^−5 M, first table)","ACAT Inhibition (%) at various concentration of example ([1]; 10^−6 M, first table)",IC50 ([1]; first table),"ACAT Inhibition (%) at various concentration of example [1, 3]","ACAT Inhibition (%) at various concentration of example [1, 4]","ACAT Inhibition (%) at various concentration of example ([1]; 3 × 10^−7 M, first table)","ACAT Inhibition (%) at various concentration of example [1, 5]","ACAT Inhibition (%) at various concentration of example [1, 6]","IC50 [1, 7]","ACAT Inhibition (%) at various concentration of example ([1]; 10^−4 M, first table)",IC50 [2]
"CC1(c2ccc(Cl)cc2)CC(C(=O)NC2CCCCCC2)=NN1c1ccc(Cl)cc1Cl (stereo not shown) [Example 1, 5-(4-Chloro-phenyl)-1-(2,4-dichloro-phenyl)-5-methyl-4,5-dihydro-1H-pyrazole-3-carboxylic acid cycloheptylamide]",54%,14%,46%,−1%,27.5 µM,,,,,,,62%,
